Where two headings read alike, the source gives them in different places.
Tests used:
Assay type in all cases: biochemical
JAK3 = JAK3 (Homo sapiens (Human), UniProt P52333); test: JAK Caliper Enzyme Assay at 1 mM ATP, JAK3
How it was run: (§1)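 IC50 (nM) derived from percent conversion of fluorescently labelled peptide, measured by Caliper LabChip mobility-shift separation after EDTA stop. Each JAK family kinase domain (human, recombinant) run at 1 mM ATP and room temperature, conditions set to 20-30% product; DMSO wells define uninhibited baseline.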

JAK1 = JAK1 (Homo sapiens (Human), UniProt P23458); test: JAK Caliper Enzyme Assay at 1 mM ATP, JAK1
How it was run: as §1

JAK2 = JAK2 (Homo sapiens (Human), UniProt O60674); test: JAK Caliper Enzyme Assay at 1 mM ATP, JAK2
How it was run: (§2)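 Recombinant human kinase domains phosphorylate a fluorescent synthetic peptide at 1 mM ATP and room temperature, with enzyme level and time tuned to 20–30% conversion before an EDTA stop. Microfluidic mobility-shift separation gives percent product from peak heights. Percent effect against plate controls (DMSO baseline) is plotted versus compound concentration.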

TYK2 = TYK2 (Homo sapiens (Human), UniProt P29597); test: JAK Caliper Enzyme Assay at 1 mM ATP, TYK2
How it was run: as §2

Sequence of TYK2 (P29597 897-1176): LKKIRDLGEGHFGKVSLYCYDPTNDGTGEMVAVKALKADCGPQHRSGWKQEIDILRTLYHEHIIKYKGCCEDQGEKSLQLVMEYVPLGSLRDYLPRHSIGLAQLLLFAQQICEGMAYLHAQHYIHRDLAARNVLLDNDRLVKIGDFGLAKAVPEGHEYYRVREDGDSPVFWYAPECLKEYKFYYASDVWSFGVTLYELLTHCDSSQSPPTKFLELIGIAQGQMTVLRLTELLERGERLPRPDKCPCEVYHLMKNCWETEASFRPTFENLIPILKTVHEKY
Sequence of JAK2 (O60674 849-1124): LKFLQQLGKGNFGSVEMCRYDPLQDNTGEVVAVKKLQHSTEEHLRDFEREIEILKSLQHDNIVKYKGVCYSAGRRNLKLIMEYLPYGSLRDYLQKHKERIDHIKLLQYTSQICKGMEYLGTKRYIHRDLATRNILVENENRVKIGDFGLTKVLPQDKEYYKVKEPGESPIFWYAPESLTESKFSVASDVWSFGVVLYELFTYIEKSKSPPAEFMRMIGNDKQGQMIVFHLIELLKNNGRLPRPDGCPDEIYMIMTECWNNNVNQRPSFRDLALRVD
Sequence of JAK3 (P52333 822-1111): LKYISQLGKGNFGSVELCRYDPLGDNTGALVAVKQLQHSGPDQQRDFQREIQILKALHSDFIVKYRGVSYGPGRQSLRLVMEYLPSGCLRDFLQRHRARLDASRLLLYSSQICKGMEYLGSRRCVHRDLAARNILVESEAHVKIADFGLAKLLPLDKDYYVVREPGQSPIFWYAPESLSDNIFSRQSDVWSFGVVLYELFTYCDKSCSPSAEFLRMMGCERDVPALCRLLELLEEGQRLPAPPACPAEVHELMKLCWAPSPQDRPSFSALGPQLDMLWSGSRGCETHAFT
Sequence of JAK1 (P23458 875-1153): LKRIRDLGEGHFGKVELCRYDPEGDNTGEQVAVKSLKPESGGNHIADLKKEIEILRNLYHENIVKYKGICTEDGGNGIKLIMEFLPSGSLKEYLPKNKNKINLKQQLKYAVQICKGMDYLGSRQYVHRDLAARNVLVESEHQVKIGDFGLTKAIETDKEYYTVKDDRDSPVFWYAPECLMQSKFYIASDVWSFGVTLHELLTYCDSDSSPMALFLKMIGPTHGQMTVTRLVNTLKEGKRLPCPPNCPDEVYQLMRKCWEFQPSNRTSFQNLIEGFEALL

| Molecule | IC50 (JAK3; JAK Caliper enzyme assay) | IC50 (JAK1; JAK Caliper enzyme assay) | IC50 (JAK2; JAK Caliper enzyme assay) | IC50 (TYK2; JAK Caliper enzyme assay) | IC50 (JAK3) | IC50 (JAK1) | IC50 (JAK2) | IC50 (TYK2) |
| --- | --- | --- | --- | --- | --- | --- | --- | --- |
| N#CC[C@]1(n2ccc(-c3nc(-c4ccnc(C(N)=O)c4)cc4ncccc34)n2)C[C@H](C#N)C1 [Example 216, 4-(5-{1-[cis-3-cyano-1-(cyanomethyl)cyclobutyl]-1H-pyrazol-3-yl}-1,6-naphthyridin-7-yl)pyridine-2-carboxamide] | – | – | – | – | > 10000 nM | 464 nM | 117 nM | 36 nM |
| Cn1ncc(-c2cc3ncccc3c(-c3ccn([C@]4(CC#N)C[C@@H](C#N)C4)n3)n2)c1CO [Example 136, trans-3-(cyanomethyl)-3-(3-{7-[5-(hydroxymethyl)-1-methyl-1H-pyrazol-4-yl]-1,6-naphthyridin-5-yl}-1H-pyrazol-1-yl)cyclobutanecarbonitrile] | – | – | – | – | > 10000 nM | 618 nM | 260 nM | 44 nM |
| 2-[3-{4-[7-(1-methyl-1H-pyrazol-4-yl)-1,6-naphthyridin-5-yl]-1H-pyrazol-1-yl}-1-(2,2,2-trifluoroethyl)azetidin-3- [Example 5] | – | – | – | – | > 10000 nM | 2820 nM | 2950 nM | 1110 nM |
| N#CCC1(n2cc(-c3nc(-c4cn[nH]c4)cc4ncccc34)cn2)CN(CC(F)(F)F)C1 [Example 1, [3-{4-[7-(1H-pyrazol-4-yl)-1,6-naphthyridin-5-yl]-1H-pyrazol-1-yl}-1-(2,2,2-trifluoroethyl)azetidin-3-yl]acetonitrile] | – | – | – | – | 7140 nM | 35 nM | 39 nM | 15 nM |
| CO[C@H]1C[C@](CC#N)(n2ncc(-c3cc(-c4cc[nH]n4)cc4ncccc34)n2)C1 [Example 305, (trans-3-methoxy-1-{4-[7-(1H-pyrazol-3-yl)quinolin-5-yl]-2H-1,2,3-triazol-2-yl}cyclobutyl)acetonitrile] | – | – | – | – | > 10000 nM | 2560 nM | 1050 nM | 35 nM |
| Cc1cc(-c2nc(-c3cc(N)n(C)n3)cc3ncccc23)nn1[C@]1(CC#N)C[C@@H](C#N)C1 [Example 270, trans-3-{3-[7-(5-amino-1-methyl-1H-pyrazol-3-yl)-1,6-naphthyridin-5-yl]-5-methyl-1H-pyrazol-1-yl}-3-(cyanomethyl)cyclobutanecarbonitrile] | – | – | – | – | > 10000 nM | 6900 nM | 574 nM | 46 nM |
| CS(=O)(=O)N1CC(CC#N)(n2ncc(-c3cc(-c4cc(O)cc(F)c4)cc4ncccc34)n2)C1 [Example 443] | > 10000 nM | > 10000 nM | 6460 nM | 631 nM | – | – | – | – |
| Cc1cc(-c2cc(-c3cnn([C@]4(CC#N)C[C@@H](C#N)C4)c3)n3ccnc3c2)[nH]n1 [Example 461, trans-3-(cyanomethyl)-3-{4-[7-(3-methyl-1H-pyrazol-5-yl)imidazo[1,2-a]pyridin-5-yl]-1H-pyrazol-1-yl}cyclobutanecarbonitrile] | > 10000 nM | 1560 nM | 389 nM | 20 nM | – | – | – | – |
| CCS(=O)(=O)N1CC(CC#N)(n2ccc(-c3nc(-c4cnn(C)c4)cc4ncccc34)n2)C1 [Example 105, [1-(ethylsulfonyl)-3-{3-[7-(1-methyl-1H-pyrazol-4-yl)-1,6-naphthyridin-5-yl]-1H-pyrazol-1-yl}azetidin-3-yl]acetonitrile] | – | – | – | – | 8090 nM | 1350 nM | 174 nM | 39 nM |
| N#CC[C@]1(n2ncc(-c3cc(-c4cccnc4N)cc4ncccc34)n2)C[C@@H](C#N)C1 [Example 362, cis-3-{4-[7-(2-aminopyridin-3-yl)quinolin-5-yl]-2H-1,2,3-triazol-2-yl}-3-(cyanomethyl)cyclobutanecarbonitrile] | – | – | – | – | > 10000 nM | > 10000 nM | > 10000 nM | 1960 nM |
| N#CCC1(n2ncc(-c3cc(-c4cc[nH]n4)cc4ncccc34)n2)CN(CC(F)(F)F)C1 [Example 296, [3-{4-[7-(1H-pyrazol-3-yl)quinolin-5-yl]-2H-1,2,3-triazol-2-yl}-1-(2,2,2-trifluoroethyl)azetidin-3-yl]acetonitrile] | – | – | – | – | > 10000 nM | 534 nM | 598 nM | 41 nM |

More lines, now with the values ahead:

| IC50 (JAK3; JAK Caliper enzyme assay) | IC50 (JAK1; JAK Caliper enzyme assay) | IC50 (JAK2; JAK Caliper enzyme assay) | IC50 (TYK2; JAK Caliper enzyme assay) | IC50 (JAK3) | IC50 (JAK1) | IC50 (JAK2) | IC50 (TYK2) | Molecule |
| --- | --- | --- | --- | --- | --- | --- | --- | --- |
| > 10000 nM | 1310 nM | 812 nM | 126 nM | – | – | – | – | N#CC[C@]1(n2cc(-c3cc(-c4cn[nH]c4)cc4nccn34)cn2)C[C@@H](C#N)C1 [Example 456, cis-3-(cyanomethyl)-3-{4-[7-(1H-pyrazol-4-yl)imidazo[1,2-a]pyridin-5-yl]-1H-pyrazol-1-yl}cyclobutanecarbonitrile] |
| > 10000 nM | 3080 nM | 1290 nM | 167 nM | – | – | – | – | Cn1cc(-c2cc(-c3cnn(C4(CC#N)CN(S(C)(=O)=O)C4)n3)c3cccnc3c2)ccc1=O [Example 412, [3-{4-[7-(1-methyl-6-oxo-1,6-dihydropyridin-3-yl)quinolin-5-yl]-2H-1,2,3-triazol-2-yl}-1-(methylsulfonyl)azetidin-3-yl]acetonitrile] |
| > 10000 nM | > 10000 nM | > 10000 nM | 3060 nM | – | – | – | – | COc1ncc(-c2cc(-c3cnn(C4(CC#N)CN(S(C)(=O)=O)C4)n3)c3cccnc3c2)cn1 [Example 405, [3-{4-[7-(2-methoxypyrimidin-5-yl)quinolin-5-yl]-2H-1,2,3-triazol-2-yl}-1-(methylsulfonyl)azetidin-3-yl]acetonitrile] |
| 3400 nM | 169 nM | 24 nM | 11 nM | – | – | – | – | Cn1cc(-c2cc3nccnc3c(-c3cnn(C4(CC#N)CN(CC(F)(F)F)C4)c3)n2)cn1 [Example 479, [3-{4-[7-(1-methyl-1H-pyrazol-4-yl)pyrido[3,4-b]pyrazin-5-yl]-1H-pyrazol-1-yl}-1-(2,2,2-trifluoroethyl)azetidin-3-yl]acetonitrile] |
| – | – | – | – | > 10000 nM | > 10000 nM | 1300 nM | 57 nM | Cc1ncc(-c2cc3ncccc3c(-c3ccn(C4(CC#N)CN(S(C)(=O)=O)C4)n3)n2)cc1O [Example 222, [3-{3-[7-(5-hydroxy-6-methylpyridin-3-yl)-1,6-naphthyridin-5-yl]-1H-pyrazol-1-yl}-1-(methylsulfonyl)azetidin-3-yl]acetonitrile] |
| > 10000 nM | > 10000 nM | > 10000 nM | 5040 nM | – | – | – | – | CS(=O)(=O)N1CC(CC#N)(n2ncc(-c3cc(-c4cncnc4)cc4ncccc34)n2)C1 [Example 389, [1-(methylsulfonyl)-3-{4-[7-(pyrimidin-5-yl)quinolin-5-yl]-2H-1,2,3-triazol-2-yl}azetidin-3-yl]acetonitrile] |
| > 10000 nM | 3200 nM | 2300 nM | 696 nM | – | – | – | – | N#CC[C@]1(n2ncc(-c3cc(-c4cnc5[nH]ccc5n4)cc4ncccc34)n2)C[C@@H](C#N)C1 [Example 416, cis-3-(cyanomethyl)-3-{4-[7-(5H-pyrrolo[2,3-b]pyrazin-2-yl)quinolin-5-yl]-2H-1,2,3-triazol-2-yl}cyclobutanecarbonitrile] |
| – | – | – | – | 5100 nM | 676 nM | 48 nM | 28 nM | N#CCC1(n2ccc(-c3nc(-c4cc5n(n4)CCNC5)cc4ncccc34)n2)CC(C#N)C1 (stereo not drawn) [Example 72, cis-3-(cyanomethyl)-3-{3-[7-(4,5,6,7-tetrahydropyrazolo[1,5-a]pyrazin-2-yl)-1,6-naphthyridin-5-yl]-1H-pyrazol-1-yl}cyclobutanecarbonitrile] |
| – | – | – | – | > 10000 nM | 880 nM | 92 nM | 16 nM | Cc1cc(-c2cc3ncccc3c(-c3ccn([C@]4(CC#N)C[C@H](C#N)C4)n3)n2)nn1C [Example 59, cis-3-(cyanomethyl)-3-{3-[7-(1,5-dimethyl-1H-pyrazol-3-yl)-1,6-naphthyridin-5-yl]-1H-pyrazol-1-yl}cyclobutanecarbonitrile] |
| > 10000 nM | > 10000 nM | 3150 nM | 297 nM | – | – | – | – | Cn1cc(-c2cc(-c3cnn([C@]4(CC#N)C[C@@H](C#N)C4)c3)n3ccnc3c2)cn1 [Example 459, trans-3-(cyanomethyl)-3-{4-[7-(1-methyl-1H-pyrazol-4-yl)imidazo[1,2-a]pyridin-5-yl]-1H-pyrazol-1-yl}cyclobutanecarbonitrile] |
| 9360 nM | 728 nM | 82 nM | 23 nM | – | – | – | – | Cc1nc2ccc(-c3cc(-c4cnn([C@]5(CC#N)C[C@H](C#N)C5)n4)c4cccnc4c3)nc2[nH]1 [Example 424, cis-3-(cyanomethyl)-3-{4-[7-(2-methyl-3H-imidazo[4,5-b]pyridin-5-yl)quinolin-5-yl]-2H-1,2,3-triazol-2-yl}cyclobutanecarbonitrile] |
| – | – | – | – | > 10000 nM | 2260 nM | 287 nM | 25 nM | Cn1ccc(-c2cc(-c3cnn(C4(CC#N)CN(S(C)(=O)=O)C4)n3)c3cccnc3c2)n1 [Example 311, [3-{4-[7-(1-methyl-1H-pyrazol-3-yl)quinolin-5-yl]-2H-1,2,3-triazol-2-yl}-1-(methylsulfonyl)azetidin-3-yl]acetonitrile] |
| – | – | – | – | > 10000 nM | 264 nM | 86 nM | 14 nM | CN(C)c1ccc(-c2cc3ncccc3c(-c3ccn(C4(CC#N)CN(S(C)(=O)=O)C4)n3)n2)cn1 [Example 203] |
| – | – | – | – | 6650 nM | 230 nM | 93 nM | 21 nM | Cc1cc(-c2cc3ncccc3c(-c3ccn([C@]4(CC#N)C[C@H](C#N)C4)n3)n2)cc(N)n1 [Example 221, cis-3-{3-[7-(2-amino-6-methylpyridin-4-yl)-1,6-naphthyridin-5-yl]-1H-pyrazol-1-yl}-3-(cyanomethyl)cyclobutanecarbonitrile] |
